Publication PMC11574108, “4-Furanylvinylquinoline derivative as a new scaffold for the design of oxidative stress initiator and glucose transporter inhibitor drugs” (Scientific Reports, 2024)
Where “and” joins values, the source holds several entries; their conditions need not be identical. Identical values can stand only once.

Key:
[1] = test system: HCT 116 p53+/+; experiment: Monolayer antiproliferative MTS assay; type: cell-based, human; settings: 2D monolayer; for IC50: MTS, 72-h incubation; for SI (selectivity index) HCT 116 p53+/+: relative to NHDF
Description: (§1) The human colon carcinoma cell line HCT 116 with wild-type p53 (p53^+/+) and the human glioblastoma cell line U-251 were obtained from ATCC, while the HCT 116 with a p53 deletion (p53^−/−) was kindly provided by Prof. M. Rusin from the Maria Sklodowska-Curie Memorial Cancer Center and Institute of Oncology in Gliwice, Poland. The human chronic myelogenous leukaemia cell line K562 and the normal human cell dermal fibroblast cell line NHDF were purchased from Sigma-Aldrich and PromoCell, respectively. Both the HCT 116 and U-251 cell lines were cultured in Dulbecco’s modified Eagle’s medium (DMEM) supplemented with 10% inactivated foetal bovine serum (FBS). The DMEM for the NHDF contained 15% non-inactivated FBS. K562 cells were cultured in RPMI medium completed by 10% inactivated FBS. Additionally, the media were supplemented with antibiotics (streptomycin and penicillin – 1% v/v; Sigma-Aldrich). The cell culture was conducted in 75 cm^2 flasks (Nunc) under standard conditions (37 °C, 5% CO2 humidified atmosphere). Furthermore, the cell lines were frequently tested for mycoplasma using the qRT-PCR technique with specific Mycoplasma primers to confirm the lack of contamination.
(§2) The cells were seeded in 96-well plates (Nunc) with 5,000 or 4,000 cells per well for the cancer cells and NHDF, respectively, and incubated under standard conditions at 37 °C overnight. The culture media were then changed for freshly prepared solutions of the tested compounds in various concentrations. After 72-h incubation the antiproliferative assay was carried out as follows: the solutions of the compounds were changed in each well to 100 µL DMEM without phenol red and 20 µL of CellTiter 96 AQueous One Solution-MTS (Promega). The plates were incubated for 1 h at 37 °C, and the absorbance was then measured at 490 nm using a multi-plate reader (Synergy 4, BioTek). The experiment for each sample was repeated at least three times.
(§3) Additionally, the compounds were also tested for their cytotoxicity against normal cells – human dermal fibroblasts (NHDF).

[2] = test system: HCT 116 p53-/-; experiment: Monolayer antiproliferative MTS assay; type: cell-based, human; settings: 2D monolayer; for IC50: MTS, 72-h incubation; for SI (selectivity index) HCT 116 p53-/-: relative to NHDF
Description: as §1, §2, §3

[3] = test system: NHDF; experiment: Monolayer MTS cytotoxicity against normal cells; type: cell-based; settings: normal human dermal fibroblasts, 72-h incubation
Description: as §1, §2, §3

[4] = test system: GLUT-1; experiment: Western blot, GLUT-1 protein level; type: cell-based, human; settings: HCT 116 p53+/+, DOX 5 µM, both time points (24 and 48 h)
Experimental: The cells (500,000) were seeded in 35 mm Petri dishes (Nunc) and incubated in a solution of the tested compound (0.5 µM and 1 µM) for 24 h and 48 h. The cells were then dissociated using trypsin, collected in Eppendorf tubes, and centrifuged at 2,000 rpm. Next, cell pellets were resuspended in complete RIPA buffer containing a Halt Protease Inhibitor Cocktail and Halt Phosphatase Inhibitor Cocktail along with 0.5 M EDTA (all reagents from Thermo Fisher Scientific) and lysed on ice for 20 min. Afterward, the lysates were sonicated and centrifuged at 10,000 rpm for 10 min at 4 °C. The obtained supernatants were collected for further analysis. The protein concentration was determined using a Micro BCA™ Protein Assay Kit (Thermo Fisher Scientific) according to the manufacturer’s procedure. Equal amounts of proteins (16 µg) were electrophoresed on SDS-Page gels and transferred onto nitrocellulose membranes. Novex Sharp Pre-Stained Protein Standard (Thermo Fisher Scientific) was used as a colored molecular weight marker. The membranes were blocked in 5% non-fat milk prepared in TPBS (PBS supplemented by 0.1% Tween-20) for 1 h. After blocking, the membranes were cut, and then incubated with specific primary monoclonal antibodies (all purchased from Cell Signaling) overnight at 4 °C. The antibodies for the target proteins (CDK1 Mouse mAb #9116, p53 Mouse mAb #2524, FAS Mouse mAb #8023, GLUT-1 Rabbit mAb #12939, HO-1 Rabbit mAb #5853, p21^Waf1/Cip1 Rabbit mAb #2947, PARP #9542) were diluted 1:1000, while the antibodies for the reference proteins (GAPDH Rabbit mAb #2118, β-actin Mouse mAb #3700, and vinculin Rabbit mAb #13901) were diluted 1:2000. The following day, the membranes were washed in TPBS and incubated with horseradish peroxidase (HRP)-conjugated secondary antibodies (Anti-rabbit IgG, HRP-linked Antibody #7074 or Anti-mouse IgG, HRP-linked Antibody #7076) for 1 h at room temperature. The membranes were then washed in TPBS and incubated with a SuperSignal™ West Pico Chemiluminescent Substrate (Thermo Fisher Scientific). Finally, the membranes were visualized using a ChemiDoc™ XRS + System (Bio-Rad). The experiments were carried out four to five times. The densitometric analysis was performed using ImageJ software (Wayne Rasband, National Institutes of Health, USA).
We, therefore, decided to test the effect of the tested compound on the level of the main glucose transporter, GLUT-1. […] The validity of the described conclusions was confirmed by the results that were obtained for doxorubicin. in which p53 activation occurred at both tested time points with a concomitant decrease in the GLUT-1 levels. […] The results that were obtained from the measurements of the expression of this protein were so interesting, and at the same time, inconclusive that we additionally decided to determine the effect of the tested derivative 13 on the expression of the genes encoding selected glucose transporters.

[5] = test system: U-251; experiment: Monolayer antiproliferative MTS assay; type: cell-based, human; settings: 2D monolayer
Description: as §1
as §2, with “times. The results are presented as the half-maximal inhibitory concentration (IC50) values, which were estimated in comparison to untreated cells (control) and calculated using GraphPad Prism v.8.0 (USA).” for “times.”
(§4) However, the antiproliferative activity of derivative 13 with furan a ring was surprising. […] For this purpose, we selected two pancreatic cancer cell lines: AsPC-1, which is characterised by a deletion of the p53 protein[20] and PANC-1, which carries an R273H mutation. This mutation also occurred in the glioblastoma U-251 cell line[22],[23]. An additional non-adherent line that carries the TP53 mutation that results in the absence of p53 is the K562 leukemic cell line[24]. […] Moreover, 13 was selective toward […], as indicated by its SI values (3.35–9.41). Among all of the tested cell lines, the highest activity of the compound was found against the HCT 116 cells with the wild-type p53 protein (0.069 µM). […] The p53 protein also interacts with the metabolic pathways that are associated with glucose transport[25] as well as small molecules. In light of the above-mentioned facts, we also determined the cytotoxicity of the GLUT inhibitor BAY-876, which is based on a quinoline scaffold. […] Furthermore, BAY-876 was also toxic to normal cells.

[6] = test system: K562; experiment: Monolayer antiproliferative MTS assay; type: cell-based, human; settings: 2D model
Description: as §1
as §2, with “times. The results are presented as the half-maximal inhibitory concentration (IC50) values, which were estimated in comparison to untreated cells (control) and calculated using GraphPad Prism v.8.0 (USA).” for “times.”
as §4

[7] = test system: AsPC-1; experiment: Monolayer antiproliferative MTS assay; type: cell-based, human; settings: 2D monolayer
Experimental: as §2, with “times. The results are presented as the half-maximal inhibitory concentration (IC50) values, which were estimated in comparison to untreated cells (control) and calculated using GraphPad Prism v.8.0 (USA).” for “times.”
as §4

[8] = test system: PANC-1; experiment: Monolayer antiproliferative MTS assay; type: cell-based, human; settings: 2D monolayer
Experimental: as §2, with “times. The results are presented as the half-maximal inhibitory concentration (IC50) values, which were estimated in comparison to untreated cells (control) and calculated using GraphPad Prism v.8.0 (USA).” for “times.”
as §4

| SMILES | melting point | IC50 ([3]; NHDF) | SI (selectivity index) HCT 116 p53+/+ [1] | IC50 ([1]; Homo sapiens, HCT-116, 72 h) | SI (selectivity index) HCT 116 p53-/- [2] | IC50 ([2]; Homo sapiens, HCT-116, 72 h) | further results |
| --- | --- | --- | --- | --- | --- | --- | --- |
| Oc1cccc2ccc(/C=C/c3ccco3)nc12 [Compound 1] |  |  |  |  |  |  | IC50 [1]: > 25 µM; IC50 [2]: > 25 µM |
| Cc1ccc(/C=C/c2ccc3cccc(O)c3n2)o1 [Compound 2] |  |  |  |  |  |  | IC50 [1]: > 25 µM; IC50 [2]: > 25 µM |
| O=[N+]([O-])c1ccc(/C=C/c2ccc3cccc(O)c3n2)o1 [Compound 3] | 189 to 191 °C |  |  |  |  |  |  |
| CC(=O)Oc1cccc2ccc(/C=C/c3ccc([N+](=O)[O-])o3)nc12 [Compound 4] | 173 to 175 °C | 0.67 ± 0.08 µM | 3.35 | 0.2 ± 0.03 µM | 2.79 | 0.24 ± 0.05 µM |  |
| O=[N+]([O-])c1ccc(/C=C/c2cc(O)c3ccccc3n2)o1 [Compound 5] | 306 to 308 °C | 0.45 ± 0.07 µM | 1.50 | 0.3 ± 0.1 µM | 1.50 | 0.3 ± 0.07 µM |  |
| Oc1c(Cl)cc(Cl)c2ccc(C=Cc3ccco3)nc12 [Compound 6] |  |  |  |  |  |  | IC50 [3]: > 25 µM; IC50 [1]: 4 µM and 4.01 µM; IC50 [2]: 2.7 µM and 2.72 µM |
| O=[N+]([O-])c1ccc(/C=C/c2ccc3c(Cl)cc(Cl)c(O)c3n2)o1 [Compound 7] | 270 to 271 °C | > 25 µM | > 7.23 | 3.46 ± 0.34 µM | > 18.80 | 1.33 ± 0.25 µM |  |
| CC(=O)Oc1c(Cl)cc(Cl)c2ccc(/C=C/c3ccc([N+](=O)[O-])o3)nc12 [Compound 8] | 220 to 222 °C | 11.3 ± 2.53 µM | 5.46 | 2.08 ± 0.4 µM | 10.13 | 1.12 ± 0.51 µM |  |
| O=[N+]([O-])c1ccccc1/C=C/c1ccnc2ccccc12 [Compound 9] | 161 to 163 °C |  |  | > 25 µM |  | > 25 µM |  |
| O=[N+]([O-])c1cccc(/C=C/c2ccnc3ccccc23)c1 [Compound 10] | 111 to 112 °C |  |  | > 25 µM |  | > 25 µM |  |
| O=[N+]([O-])c1ccc(/C=C/c2ccnc3ccccc23)cc1 [Compound 11] | 228 to 229 °C |  |  | > 25 µM |  | > 25 µM |  |
| O=[N+]([O-])c1ccc(/C=C/c2ccnc3ccccc23)c([N+](=O)[O-])c1 [Compound 12] | 200 to 201 °C |  |  |  |  |  | IC50 ([1]; Homo sapiens, HCT-116): > 25 µM; IC50 ([2]; Homo sapiens, HCT-116): > 25 µM |
| COc1cccc2c1C(=O)c1c(O)c3c(c(O)c1C2=O)C[C@@](O)(C(=O)CO)C[C@@H]3O[C@H]1C[C@H](N)[C@H](O)[C@H](C)O1 [Doxorubicin, reference compound] |  | 0.14 ± 0.03 µM | 0.41 |  | 0.37 |  | GLUT-1 protein level vs control [4]: decrease; IC50 ([1]; Homo sapiens, HCT-116): 0.34 ± 0.04 µM; IC50 ([2]; Homo sapiens, HCT-116): 0.38 ± 0.03 µM; SI (selectivity index) U-251 ([5]; relative to NHDF): 2.80; IC50 ([5]; Homo sapiens, U-251, MTS, 72-h incubation): 0.05 ± 0.02 µM; SI (selectivity index) K562 ([6]; relative to NHDF): 7.00; IC50 ([6]; Homo sapiens, K562, MTS, 72-h incubation): 0.02 ± 0.01 µM; SI (selectivity index) AsPC-1 ([7]; relative to NHDF): 0.16; IC50 ([7]; Homo sapiens, ASPC1, MTS, 72-h incubation): 0.86 ± 0.13 µM; SI (selectivity index) PANC-1 ([8]; relative to NHDF): 0.19; IC50 ([8]; Homo sapiens, PANC-1, MTS, 72-h incubation): 0.73 ± 0.09 µM |
